Source: PubChem BioAssay AID248 (DTP/NCI, 2004)
Values joined by “and” are separate entries in the source; they are usually repeats but may differ in a detail not shown here. Equal entries are not always repeated. Inconclusive results and toxic doses are left out.

Tested on: L1210 leukemia ip in BDF1 mice, survival T/C
Experiment: NCI In Vivo Anticancer Drug Screen. Data for tumor model L1210 Leukemia (intraperitoneal) in B6D2F1 (BDF1) mice
Details: endpoint: mean survival time, higher = longer survival
How it was run: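 Read-out is survival time, reported as the treated-group measurement over the vehicle-control measurement.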

[1] = dose: 100.0 mg/kg/injection, schedule: Q01DX005 (ip), vehicle: saline
[2] = dose: 100.0 mg/kg/injection, schedule: Q01DX009 (ip), vehicle: Klucel (hydroxypropylcellulose) (HPC)
[3] = dose: 100.0 mg/kg/injection, schedule: Q04DX002 (ip), vehicle: Klucel (hydroxypropylcellulose) (HPC)
[4] = dose: 200.0 mg/kg/injection, schedule: Q01DX009 (ip), vehicle: Klucel (hydroxypropylcellulose) (HPC)
[5] = dose: 400.0 mg/kg/injection, schedule: Q01DX009 (ip), vehicle: Klucel (hydroxypropylcellulose) (HPC)
[6] = dose: 400.0 mg/kg/injection, schedule: Q04DX002 (ip), vehicle: Klucel (hydroxypropylcellulose) (HPC)
[7] = dose: 25.0 mg/kg/injection, schedule: Q04DX002 (ip), vehicle: saline
[8] = dose: 50.0 mg/kg/injection, schedule: Q04DX002 (ip), vehicle: saline
[9] = dose: 100.0 mg/kg/injection, schedule: Q04DX002 (ip), vehicle: saline
[10] = dose: 100.0 mg/kg/injection, schedule: Q01DX001 (ip), vehicle: saline
[11] = dose: 200.0 mg/kg/injection, schedule: Q01DX001 (ip), vehicle: saline
[12] = dose: 100.0 mg/kg/injection, schedule: Q04DX003 (ip), vehicle: Klucel (hydroxypropylcellulose) (HPC)
[13] = dose: 200.0 mg/kg/injection, schedule: Q01DX009 (ip), vehicle: saline with Tween-80
[14] = dose: 200.0 mg/kg/injection, schedule: Q04DX003 (ip), vehicle: Klucel (hydroxypropylcellulose) (HPC)
[15] = dose: 400.0 mg/kg/injection, schedule: Q01DX009 (ip), vehicle: saline with Tween-80
[16] = dose: 400.0 mg/kg/injection, schedule: Q04DX003 (ip), vehicle: Klucel (hydroxypropylcellulose) (HPC)

CCCCOC(=O)CNC(=O)c1ccc([N+](=O)[O-])s1
T/C (dose: 50.0 mg/kg/injection, schedule: Q01DX005 (ip), vehicle: saline): 102 % of control
T/C [1]: 98 % of control
T/C (dose: 400.0 mg/kg/injection, schedule: Q01DX005 (ip), vehicle: saline): 91 % of control

COc1ccc(COC(=O)Nc2ccccc2Cl)cc1
T/C [2]: 91 % of control
T/C [3]: 95 % of control
T/C [4]: 96 % of control
T/C [5]: 104 % of control
T/C [6]: 95 % of control

C=CCCCCCCCCC(=O)O
T/C (dose: 100.0 mg/kg/injection, schedule: Q01DX009 (ip), vehicle: other): 104 % of control
T/C (dose: 100.0 mg/kg/injection, schedule: Q04DX002 (ip), vehicle: other): 87 % of control
T/C (dose: 200.0 mg/kg/injection, schedule: Q01DX009 (ip), vehicle: other): 93 % of control
T/C (dose: 200.0 mg/kg/injection, schedule: Q04DX002 (ip), vehicle: other): 112 % of control
T/C (dose: 400.0 mg/kg/injection, schedule: Q01DX009 (ip), vehicle: other): 89 % of control

CC(C)N(CCC(=O)CC12CC3CC(CC(C3)C1)C2)C(C)C
T/C [7]: 92 % of control
T/C [8]: 98 % of control
T/C [9]: 95 % of control and 97 % of control

CCCCCOC(=O)C(C(=O)OCCCCC)(C(=O)OCCCCC)C(=O)OCCCCC
T/C [10]: 100 % of control
T/C [11]: 104 % of control
T/C (dose: 400.0 mg/kg/injection, schedule: Q01DX001 (ip), vehicle: saline): 95 % of control

CCCCCC#CC(=O)OCCCC
T/C (dose: 100.0 mg/kg/injection, schedule: Q04DX002 (ip), vehicle: saline with Tween-80): 102 % of control
T/C (dose: 200.0 mg/kg/injection, schedule: Q04DX002 (ip), vehicle: saline with Tween-80): 94 % of control
T/C (dose: 400.0 mg/kg/injection, schedule: Q04DX002 (ip), vehicle: saline with Tween-80): 108 % of control

O=c1[nH]nc(-c2ccc(Cl)c(Cl)c2)s1
T/C (dose: 75.0 mg/kg/injection, schedule: Q01DX001 (ip), vehicle: saline): 95 % of control
T/C (dose: 75.0 mg/kg/injection, schedule: Q04DX003 (ip), vehicle: saline): 95 % of control
T/C (dose: 150.0 mg/kg/injection, schedule: Q01DX001 (ip), vehicle: saline): 92 % of control
T/C (dose: 150.0 mg/kg/injection, schedule: Q04DX003 (ip), vehicle: saline): 95 % of control
T/C (dose: 300.0 mg/kg/injection, schedule: Q01DX001 (ip), vehicle: saline): 92 % of control
T/C (dose: 300.0 mg/kg/injection, schedule: Q04DX003 (ip), vehicle: saline): 96 % of control

CCCCCCC(O)CCCC (stereo unspecified)
T/C (dose: 100.0 mg/kg/injection, schedule: Q01DX009 (ip), vehicle: saline with Tween-80): 117 % of control
T/C [12]: 91 % of control
T/C [13]: 110 % of control
T/C [14]: 88 % of control
T/C [15]: 122 % of control
T/C [16]: 88 % of control

O=C(O)CCC(=O)Oc1ccccc1
T/C (dose: 100.0 mg/kg/injection, schedule: Q04DX003 (ip), vehicle: other): 92 % of control
T/C (dose: 200.0 mg/kg/injection, schedule: Q04DX003 (ip), vehicle: other): 106 % of control

Cc1cnc(=S)[nH]c1N
T/C (dose: 50.0 mg/kg/injection, schedule: Q01DX009 (ip), vehicle: saline): 99 % of control
T/C (dose: 100.0 mg/kg/injection, schedule: Q01DX009 (ip), vehicle: saline): 95 % of control
T/C (dose: 100.0 mg/kg/injection, schedule: Q04DX003 (ip), vehicle: saline): 101 % of control
T/C (dose: 200.0 mg/kg/injection, schedule: Q01DX009 (ip), vehicle: saline): 99 % of control
T/C (dose: 200.0 mg/kg/injection, schedule: Q04DX003 (ip), vehicle: saline): 105 % of control

CC(=O)OC(C(N)=O)C(OC(C)=O)C(=O)O (stereo unspecified)
T/C (dose: 100.0 mg/kg/injection, schedule: Q04DX003 (ip), vehicle: water): 96 % of control
T/C (dose: 200.0 mg/kg/injection, schedule: Q04DX003 (ip), vehicle: water): 100 % of control
T/C (dose: 400.0 mg/kg/injection, schedule: Q04DX003 (ip), vehicle: water): 97 % of control

CC1=CC(C)=Nc2ccc(Cl)cc2N1
T/C (dose: 100.0 mg/kg/injection, schedule: Q04DX003 (ip), vehicle: acetone): 97 % of control
T/C (dose: 200.0 mg/kg/injection, schedule: Q04DX003 (ip), vehicle: acetone): 101 % of control
T/C (dose: 400.0 mg/kg/injection, schedule: Q04DX003 (ip), vehicle: acetone): 92 % of control

CCOC(=O)CNC(=O)C1OC(n2cnc3c(N)ncnc32)C2OC(C)(C)OC12 (stereo unspecified)
T/C [1]: 95 % of control
T/C (dose: 200.0 mg/kg/injection, schedule: Q01DX005 (ip), vehicle: saline): 92 % of control

O=NN(CCCl)C(=O)N[C@H]1CCCC[C@H]1O
T/C (dose: 12.0 mg/kg/injection, schedule: Q01DX001 (ip), vehicle: saline with Tween-80): 176 % of control
T/C (dose: 18.0 mg/kg/injection, schedule: Q01DX001 (ip), vehicle: saline with Tween-80): 301 % of control
T/C (dose: 26.0 mg/kg/injection, schedule: Q01DX001 (ip), vehicle: saline with Tween-80): 443 % of control
T/C (dose: 40.0 mg/kg/injection, schedule: Q01DX001 (ip), vehicle: saline with Tween-80): 442 % of control
T/C (dose: 60.0 mg/kg/injection, schedule: Q01DX001 (ip), vehicle: saline with Tween-80): 205 % of control

CCCCCCCCCCCCCCCC(=O)Oc1ccc(/C(CC)=C(/CC)c2ccc(OC(=O)CCCCCCCCCCCCCCC)cc2)cc1
T/C (dose: 100.0 mg/kg/injection, schedule: Q04DX003 (ip), vehicle: saline with Tween-80): 89 % of control
T/C [13]: 91 % of control
T/C (dose: 200.0 mg/kg/injection, schedule: Q04DX003 (ip), vehicle: saline with Tween-80): 100 % of control
T/C [15]: 91 % of control
T/C (dose: 400.0 mg/kg/injection, schedule: Q04DX003 (ip), vehicle: saline with Tween-80): 89 % of control

NC(=O)c1cn[nH]c1N
T/C (dose: 100.0 mg/kg/injection, schedule: Q01DX001 (ip), vehicle: Klucel (hydroxypropylcellulose) (HPC)): 96 % of control
T/C [2]: 95 % of control and 87 % of control and 93 % of control
T/C [3]: 100 % of control and 102 % of control
T/C [12]: 106 % of control and 93 % of control
T/C (dose: 200.0 mg/kg/injection, schedule: Q01DX001 (ip), vehicle: Klucel (hydroxypropylcellulose) (HPC)): 104 % of control
T/C [4]: 93 % of control and 95 % of control
T/C (dose: 200.0 mg/kg/injection, schedule: Q04DX002 (ip), vehicle: Klucel (hydroxypropylcellulose) (HPC)): 96 % of control and 120 % of control
T/C [14]: 100 % of control and 91 % of control
T/C (dose: 400.0 mg/kg/injection, schedule: Q01DX001 (ip), vehicle: Klucel (hydroxypropylcellulose) (HPC)): 96 % of control
T/C [5]: 97 % of control and 123 % of control and 93 % of control
T/C [6]: 100 % of control and 102 % of control
T/C [16]: 87 % of control and 93 % of control

Nc1nc(N)c(N=Nc2ccc(C(=O)O)cc2)c(=O)[nH]1
T/C [10]: 105 % of control
T/C [11]: 106 % of control

Cc1ccc(NC(=O)N(C)N)cc1
T/C (dose: 75.0 mg/kg/injection, schedule: Q01DX001 (ip), vehicle: carboxymethylcellulose (CMC)): 102 % of control
T/C (dose: 150.0 mg/kg/injection, schedule: Q01DX001 (ip), vehicle: carboxymethylcellulose (CMC)): 104 % of control

CCN(CC)CCCC(C)Nc1cccc2c1C(=O)c1cccc(NC(C)CCCN(CC)CC)c1C2=O (stereo unspecified)
T/C (dose: 12.5 mg/kg/injection, schedule: Q01DX009 (ip), vehicle: saline): 107 % of control
T/C (dose: 25.0 mg/kg/injection, schedule: Q01DX009 (ip), vehicle: saline): 96 % of control and 118 % of control
T/C [7]: 98 % of control and 95 % of control
T/C [8]: 92 % of control and 98 % of control
T/C [9]: 102 % of control and 92 % of control

[NH-]C(Cc1ccccc1)C(=O)O.[NH-]C(Cc1ccccc1)C(=O)O.[Ni+2] (stereo unspecified)
T/C (dose: 12.5 mg/kg/injection, schedule: Q04DX003 (ip), vehicle: saline): 95 % of control
T/C (dose: 25.0 mg/kg/injection, schedule: Q04DX003 (ip), vehicle: saline): 95 % of control
T/C (dose: 50.0 mg/kg/injection, schedule: Q04DX003 (ip), vehicle: saline): 98 % of control

CSC(c1ccc(Oc2ccccc2)cc1)=[N+]1CCCCC1
T/C (dose: 9.38 mg/kg/injection, schedule: Q01DX001 (ip), vehicle: steriod suspending solution): 105 % of control
T/C (dose: 18.75 mg/kg/injection, schedule: Q01DX001 (ip), vehicle: steriod suspending solution): 103 % of control
T/C (dose: 37.5 mg/kg/injection, schedule: Q01DX001 (ip), vehicle: steriod suspending solution): 105 % of control
